In patent US11377393B2, “Method and composition for improving plant growth” (DANSTAR FERMENT AG, priority 2016, dated 2022):

Test system: triticale (var. Bellac)
Experiment: Effect of inactive yeast and/or yeast derivatives in combination with nitrogen sources on plant growth (pot test, dry weight of aerial parts)
Format: in vivo
Settings: triticale seeds in 20 g soil, 30 days, nitrogen 15 kg/ha, applied liquid to soil, letters = significance groups (p<0,1 Dunnett)
Description: Seeds of triticale (var. Bellac) coated with insectide Gaucho 350 and fungicide Rédigo® (Bayer) were used in the study. The tested nitrogenous components were the following: urea and calcium nitrate.
Two seeds were grown in individual plastic pots or cells containing equal quantity of soil (20 g). The treatments T1 to T4, T6, T7, T9, T10 and T13 (see Table 1) were distributed randomly in lines, with each line comprising of all treatments. Treatments T1 to T4, T6, T7, T9, T10 and T13 were repeated seven times and the experiment was repeated twice over time.
The treatments T1 to T4, T6, T7, T9, T10 and T13 were applied, in a liquid form, directly in the soil surrounding the seeds. The treatments were mixed with sterile distilled water in a total 5 ml samples. For the negative control, 5 ml of sterile distilled water was added. Seeds were grown under controlled conditions for 30 days. Growth conditions were 18/15 C for 10/14 hours (day/night) and 70% RH. Growth measurements were taken by measuring length and dry weight of the aerial part of the plants.
The growth in weight of the plants (the dry weight of the aerial parts) for each treatment was compared by statistical analysis.

| Compound | Dry weight gain average (Table 5, urea series) [bc] | Dry weight gain average (Table 4, calcium nitrate series) [b] |
| --- | --- | --- |
| NC(N)=O [Treatment T3, Urea] | 0.153 |  |
| O=[N+]([O-])[O-].O=[N+]([O-])[O-].[Ca+2] [Treatment T4, Calcium nitrate] |  | 0.106 |
